Molecular target: TRPML1 (Homo sapiens, UniProt Q9GZU1)
Experiment: Fluorescent TRPML1 assay (Fluo4-AM calcium fluorescence in doxycycline-induced HEK-293 Trex cells)
Format: cell-based
Conditions: fluorescent calcium assay
Protocol: HEK-293 Trex cells were stably transfected with a construct consisting of the human coding sequence for TRPML1 cloned into the […] plasmid pCDNA5 T/O. Mutations were introduced into the TRPML1 sequence to facilitate expression on the cell surface (Silvia Vergarajauregui, Rosa Puertollano, Traffic. 2006 March; 7(3): 337-353). Briefly, the cells are cultured in 150 mm round tissue culture dishes containing 20 mL of media. The day before the assay the cells are rinsed with DPBS-Ca—Mg and then treated briefly with Trypsin-EDTA. The Trypsin-EDTA is diluted with growth media, and cells are counted. 38×10^6 cells are re-plated into 150 mm round tissue culture dishes in media containing 0.5 ug/mL doxycycline to induce expression of hTRPML1.
The day of the experiment cells are lifted from the plates as above and collected by centrifugation. The cells are then suspended in dye loading buffer consisting of Ringer's solution supplemented with 0.1% Pluronic Acid and 1 micromolar Fluo4-AM dye. Cells are loaded for ˜60 minutes in the dark with occasional mixing. The cells are collected by centrifugation, the loading media aspirated, and the cells resuspended in 25 mL Ringer's solution and incubated ˜60 minutes in the dark. The cells are again collected by centrifugation, rinsed in Ringer's Solution and resuspended to […] in modified Ringer's solution containing 10 mM calcium.
Compounds are dissolved to a concentration of 10 millimolar with DMSO. Compound plates are created by dispensing compounds into 384 well black wall clear bottom plates (Greiner 781091). Positive and negative controls are included on each plate. Typically, different amounts of each compound are tested ranging from 100 nanoMoles (20 micromolar final concentration) decreasing in half-log steps to 31 picoMoles (6 nanomolar final concentration). Each concentration is typically tested in triplicate.
50 microliters of dye-loaded cells are dispensed into each well of the compound assay plate created above. The fluorescence in each well is then determined with an excitation wavelength of 480 nm and an emission wavelength of 540 nm using either a Molecular Devices SpectraMax multimode plate reader or a Hamamatsu FDSS/uCell plate imager.
The resulting fluorescence for each well is exported as an ascii file and loaded into our LIMS for analysis. The percent activity of each compound at each concentration is determined by comparison to the positive and negative control wells included in each plate.
EC50 values were calculated using a non-linear regression of Prism. In the table, “A” indicates an EC50 of less than 100 nM, “B” indicates an EC50 range from 100 nM to 500 nM; “C” indicates an EC50 range from 500 nM to 2 μM; and “D” indicates an EC50 greater than 2 μM.

TRPML1, sequence (Q9GZU1 whole entry L15A/L16A/L577A/L578A, form open): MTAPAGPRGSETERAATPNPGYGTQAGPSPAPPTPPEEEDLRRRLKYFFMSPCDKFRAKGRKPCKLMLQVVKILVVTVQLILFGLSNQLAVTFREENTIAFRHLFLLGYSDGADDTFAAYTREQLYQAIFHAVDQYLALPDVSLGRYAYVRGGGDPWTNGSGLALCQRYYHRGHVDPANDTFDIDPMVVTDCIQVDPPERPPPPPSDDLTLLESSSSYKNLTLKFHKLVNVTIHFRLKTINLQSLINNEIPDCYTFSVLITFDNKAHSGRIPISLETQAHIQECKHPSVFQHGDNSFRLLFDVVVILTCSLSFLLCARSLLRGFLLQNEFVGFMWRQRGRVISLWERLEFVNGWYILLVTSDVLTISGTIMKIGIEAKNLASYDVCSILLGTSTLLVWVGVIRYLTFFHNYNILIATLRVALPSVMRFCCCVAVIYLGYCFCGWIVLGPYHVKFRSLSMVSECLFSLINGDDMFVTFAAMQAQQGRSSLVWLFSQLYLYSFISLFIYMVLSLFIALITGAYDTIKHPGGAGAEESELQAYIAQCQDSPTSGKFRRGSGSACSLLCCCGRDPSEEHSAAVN

| Compound | EC50 [nM] |
| --- | --- |
| C[C@H]1CN(C(=O)OC(C)(C)C)CCN1c1ncnc2c1c(N1CCCC1)cn2C1CCOCC1 [Compound 360, tert-butyl (S)-3-methyl-4-(5-(pyrrolidin-1-yl)-7-(tetrahydro-2H-pyran-4-yl)-7H-pyrrolo[2,3-d]pyrimidin-4-yl)piperazine-1-carboxylate] | 500 to 2000 |
| C[C@H]1CN(C(=O)OC(C)(C)C)CCN1c1ncnc2c1c(-c1cnccn1)cn2-c1cccc(C#N)c1 [Compound 297, tert-butyl (S)-4-(7-(3-cyanophenyl)-5-(pyrazin-2-yl)-7H-pyrrolo[2,3-d]pyrimidin-4-yl)-3-methylpiperazine-1-carboxylate] | 500 to 2000 |
| COc1cc(OC)cc(-n2cc(C3CC3)c3c(N4CCN(C(=O)OC(C)(C)C)C[C@@H]4C)ncnc32)c1 [Compound 289, tert-butyl (S)-4-(5-cyclopropyl-7-(3,5-dimethoxyphenyl)-7H-pyrrolo[2,3-d]pyrimidin-4-yl)-3-methylpiperazine-1-carboxylate] | 100 to 500 |
| C[C@H]1CN(C(=O)OC(C)(C)C)CCN1c1ncnc2c1c(-c1cnccn1)cn2-c1cccc(OC(F)(F)F)c1 [Compound 296, tert-butyl (S)-3-methyl-4-(5-(pyrazin-2-yl)-7-(3-(trifluoromethoxy)phenyl)-7H-pyrrolo[2,3-d]pyrimidin-4-yl)piperazine-1-carboxylate] | 100 to 500 |
| C[C@H]1CN(C(=O)OC(C)(C)C)CCN1c1ncnc2c1c(-c1ccccn1)cn2-c1cccc(OC(F)(F)F)c1 [Compound 279, tert-butyl (S)-3-methyl-4-(5-(pyridin-2-yl)-7-(3-(trifluoromethoxy)phenyl)-7H-pyrrolo[2,3-d]pyrimidin-4-yl)piperazine-1-carboxylate] | 100 to 500 |
| C[C@H]1CN(C(=O)OC(C)(C)C)CCN1c1ncnc2c1c(C1CC1)cn2-c1cc(C#N)cc(C#N)c1 [Compound 292, tert-butyl (S)-4-(5-cyclopropyl-7-(3,5-dicyanophenyl)-7H-pyrrolo[2,3-d]pyrimidin-4-yl)-3-methylpiperazine-1-carboxylate] | 100 to 500 |
| COc1cccc(-n2cc(-c3ccccn3)c3c(N4CCN(C(=O)OC(C)(C)C)C[C@@H]4C)ncnc32)c1 [Compound 278, tert-butyl (S)-4-(7-(3-methoxyphenyl)-5-(pyridin-2-yl)-7H-pyrrolo[2,3-d]pyrimidin-4-yl)-3-methylpiperazine-1-carboxylate] | 500 to 2000 |
| COc1cccc(-n2cc(-c3cnccn3)c3c(N4CCN(C(=O)OC(C)(C)C)C[C@@H]4C)ncnc32)c1 [Compound 295, tert-butyl (S)-4-(7-(3-methoxyphenyl)-5-(pyrazin-2-yl)-7H-pyrrolo[2,3-d]pyrimidin-4-yl)-3-methylpiperazine-1-carboxylate] | 500 to 2000 |
| C[C@@H]1CCCN1c1cn(-c2cccc(Cl)c2)c2ncnc(N3CCN(C(=O)OC(C)(C)C)C[C@@H]3C)c12 [Compound 286, tert-butyl (S)-4-(7-(3-chlorophenyl)-5-((R)-2-methylpyrrolidin-1-yl)-7H-pyrrolo[2,3-d]pyrimidin-4-yl)-3-methylpiperazine-1-carboxylate] | 100 to 500 |
| C[C@H]1CN(C(=O)OC(C)(C)C)CCN1c1ncnc2c1c(N1CCC[C@H]1CO)cn2-c1cccc(Cl)c1 [Compound 298, tert-butyl (S)-4-(7-(3-chlorophenyl)-5-((S)-2-(hydroxymethyl)pyrrolidin-1-yl)-7H-pyrrolo[2,3-d]pyrimidin-4-yl)-3-methylpiperazine-1-carboxylate] | 500 to 2000 |
| C[C@H]1CN(C(=O)OC(C)(C)C)CCN1c1ncnc2c1c(C1CCOCC1)nn2-c1cccc(Cl)c1 [Compound 284, tert-butyl (S)-4-(1-(3-chlorophenyl)-3-(tetrahydro-2H-pyran-4-yl)-1H-pyrazolo[3,4-d]pyrimidin-4-yl)-3-methylpiperazine-1-carboxylate] | 500 to 2000 |

Results, then the compound that gave them:

| EC50 [nM] | Compound |
| --- | --- |
| < 100 | C[C@H]1CN(C(=O)OC(C)(C)C)CCN1c1ncnc2c1c(N1CCCC1)cn2-c1cc(F)c(F)c(F)c1 [Compound 356, tert-butyl (S)-3-methyl-4-(5-(pyrrolidin-1-yl)-7-(3,4,5-trifluorophenyl)-7H-pyrrolo[2,3-d]pyrimidin-4-yl)piperazine-1-carboxylate] |
| 100 to 500 | C[C@H]1CN(C(=O)OC(C)(C)C)CCN1c1ncnc2c1c(-c1ccccn1)cn2-c1cccc(C#N)c1 [Compound 280, tert-butyl (S)-4-(7-(3-cyanophenyl)-5-(pyridin-2-yl)-7H-pyrrolo[2,3-d]pyrimidin-4-yl)-3-methylpiperazine-1-carboxylate] |
| < 100 | C[C@H]1CN(C(=O)OC(C)(C)C)CCN1c1ncnc2c1c(C1CC1)nn2-c1cccc(C#N)c1 [Compound 357, tert-butyl (S)-4-(1-(3-cyanophenyl)-3-cyclopropyl-1H-pyrazolo[3,4-d]pyrimidin-4-yl)-3-methylpiperazine-1-carboxylate] |
| 100 to 500 | C[C@H]1CN(C(=O)OC(C)(C)C)CCN1c1ncnc2c1c(-c1cccnc1)cn2-c1cccc(C#N)c1 [Compound 282, tert-butyl-(S)-4-(7-(3-cyanophenyl)-5-(pyridin-3-yl)-7H-pyrrolo[2,3-d]pyrimidin-4-yl)-3-methylpiperazine-1-carboxylate] |
| < 100 | C[C@H]1CN(C(=O)OC(C)(C)C)CCN1c1ncnc2c1c(C1CC1)cn2-c1cc(F)cc(C#N)c1 [Compound 291, tert-butyl (S)-4-(7-(3-cyano-5-fluorophenyl)-5-cyclopropyl-7H-pyrrolo[2,3-d]pyrimidin-4-yl)-3-methylpiperazine-1-carboxylate] |
| 100 to 500 | COc1cc(F)cc(-n2cc(C3CC3)c3c(N4CCN(C(=O)OC(C)(C)C)C[C@@H]4C)ncnc32)c1 [Compound 288, tert-butyl (S)-4-(5-cyclopropyl-7-(3-fluoro-5-methoxyphenyl)-7H-pyrrolo[2,3-d]pyrimidin-4-yl)-3-methylpiperazine-1-carboxylate] |
| < 100 | C[C@H]1CN(C(=O)OC(C)(C)C)CCN1c1ncnc2c1c(C1CC1)cn2-c1ccc(F)c(C#N)c1 [Compound 290, tert-butyl (S)-4-(7-(3-cyano-4-fluorophenyl)-5-cyclopropyl-7H-pyrrolo[2,3-d]pyrimidin-4-yl)-3-methylpiperazine-1-carboxylate] |
| < 100 | CC(C)(C)OC(=O)N1CCN(c2ncnc3c2c(C2CC2)cn3-c2cc(F)cc(F)c2)C[C@@H]1C(F)(F)F [Compound 276, tert-butyl (R)-4-(5-cyclopropyl-7-(3,5-difluorophenyl)-7H-pyrrolo[2,3-d]pyrimidin-4-yl)-2-(trifluoromethyl)piperazine-1-carboxylate] |
| < 100 | C[C@H]1CN(C(=O)OC(C)(C)C)CCN1c1ncnc2c1c(-c1cccnc1)cn2-c1cccc(OC(F)(F)F)c1 [Compound 281, tert-butyl-(S)-3-methyl-4-(5-(pyridin-3-yl)-7-(3-(trifluoromethoxy)phenyl)-7H-pyrrolo [2,3-d]pyrimidin-4-yl)piperazine-1-carboxylate] |
| < 100 | C[C@@H]1CN(c2ncnc3c2c(N2CCCC2)cn3-c2cccc(C#N)c2)CCN1C(=O)OC(C)(C)C [Compound 277, tert-butyl (R)-4-(7-(3-cyanophenyl)-5-(pyrrolidin-1-yl)-7H-pyrrolo[2,3-d]pyrimidin-4-yl)-2-methylpiperazine-1-carboxylate] |
| < 100 | C[C@H]1CN(C(=O)OC(C)(C)C)CCN1c1ncnc2c1c(N1CCCC1)cn2-c1cccc(C#N)c1 [Compound 285, tert-butyl (S)-4-(7-(3-cyanophenyl)-5-(pyrrolidin-1-yl)-7H-pyrrolo[2,3-d]pyrimidin-4-yl)-3-methylpiperazine-1-carboxylate] |
| < 100 | C[C@@H]1CN(c2ncnc3c2c(N2CCCCC2)cn3-c2cccc(Cl)c2)CCN1C(=O)OC(C)(C)C [Compound 287, tert-butyl (R)-4-(7-(3-chlorophenyl)-5-(piperidin-1-yl)-7H-pyrrolo[2,3-d]pyrimidin-4-yl)-2-methylpiperazine-1-carboxylate] |
| < 100 | C[C@H]1CN(C(=O)OC(C)(C)C)CCN1c1ncnc2c1c(C1CC1)cn2[C@@H]1C[C@@H]2CC[C@H]1C2 [Compound 361, tert-butyl (S)-4-(7-((1S,2R,4R)-bicyclo[2.2.1]heptan-2-yl)-5-cyclopropyl-7H-pyrrolo[2,3-d]pyrimidin-4-yl)-3-methylpiperazine-1-carboxylate] |
| < 100 | C[C@H]1CN(C(=O)OC(C)(C)C)CCN1c1ncnc2c1c(N1CCC(C)(C)C1)cn2-c1cccc(C#N)c1 [Compound 358, tert-Butyl (S)-4-(7-(3-cyanophenyl)-5-(3,3-dimethylpyrrolidin-1-yl)-7H-pyrrolo[2,3-d]pyrimidin-4-yl)-3-methylpiperazine-1-carboxylate] |

Source: patent US20250136606A1, “MODULATORS OF TRPML, THEIR COMPOSITIONS AND METHODS OF USE” (Caraway Therapeutics, Inc., priority 2021, published 2025)
